Experimental data reported in the supplement of paper PMC10307832.

What was measured:
Experiment in all cases: relative viability (nuclei count vs DMSO), 5 days (fraction); higher = more cells survive
[1] = compound: O=C(NC1CCNCC1)c1n[nH]cc1NC(=O)c1c(Cl)cccc1Cl [AT-7519] + CC(C)C[C@H](NC(=O)[C@H](Cc1ccccc1)NC(=O)c1cnccn1)B(O)O [Bortezomib] (partner 0.002 µM)
Procedure, shortened: (§1)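 Relative viability equals treated-well nuclei counts divided by vehicle-well nuclei counts. Counts came from 4× images of lung cancer cell lines grown in 1536-well plates for 5 days after pin-tool dosing on the day after seeding. Dosing used one drug alone or a fixed anchor-drug dose plus five library-drug doses (not always all listed) in √10 steps, and values are medians of duplicate plates.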

[2] = compound: O=C(NC1CCNCC1)c1n[nH]cc1NC(=O)c1c(Cl)cccc1Cl [AT-7519] + C[C@@H](Oc1cc(-c2cnn(C3CCNCC3)c2)cnc1N)c1c(Cl)ccc(F)c1Cl [Crizotinib] (partner 1 µM)
Procedure, shortened: as §1

[3] = compound: O=C(NC1CCNCC1)c1n[nH]cc1NC(=O)c1c(Cl)cccc1Cl [AT-7519] + Nc1ncn([C@H]2C[C@H](O)[C@@H](CO)O2)c(=O)n1 [Decitabine] (partner 2 µM)
Procedure, shortened: as §1

[4] = compound: O=C(NC1CCNCC1)c1n[nH]cc1NC(=O)c1c(Cl)cccc1Cl [AT-7519] + O=C(c1cc(Cc2n[nH]c(=O)c3ccccc23)ccc1F)N1CCN(C(=O)C2CC2)CC1 [Olaparib] (partner 8 µM)
Procedure, shortened: as §1

UMC-11
relative viability ([1]; first compound 0.01 µM): 1.03 | relative viability ([1]; first compound 0.03162 µM): 0.667 | relative viability ([1]; first compound 0.3162 µM): 0.427 | relative viability ([1]; first compound 1 µM): 0.359 | relative viability ([2]; first compound 0.01 µM): 0.677 | relative viability ([2]; first compound 0.03162 µM): 0.539 | relative viability ([2]; first compound 0.3162 µM): 0.302 | relative viability ([2]; first compound 1 µM): 0.13 | relative viability ([3]; first compound 0.01 µM): 0.675 | relative viability ([3]; first compound 0.03162 µM): 0.551 | relative viability ([3]; first compound 0.3162 µM): 0.514 | relative viability ([3]; first compound 1 µM): 0.306 | relative viability ([4]; first compound 0.01 µM): 0.333 | relative viability ([4]; first compound 0.03162 µM): 0.368 | relative viability ([4]; first compound 0.3162 µM): 0.373 | relative viability ([4]; first compound 1 µM): 0.229
